Results published in paper PMC6199744, “Development of Chemical Proteomics for the Folateome and Analysis of the Kinetoplastid Folateome” (ACS Infectious Diseases, 2018).
Where “and” joins values, the source holds several entries; their conditions need not be identical. Equal values may be shown once. Read-outs that look alike come from different tables or passages of the source.

System: L. major lysate proteins
Test: Multitargeted bead mixture chemoproteomics, single concentration competition, proteome-wide
Format: binding
Conditions: for fold change / fold change relative to vehicle control: vehicle control = 1; for fold change relative to vehicle control: competition with free ligand

## Nc1nc2cccc(-c3ccccc3)c2n1Cc1ccc(Cl)c(Cl)c1 [compound 3]
  fold change vs vehicle control: 1.02 and 1.09 and 1
LINJ.05.0500 ATPASE ALPHA SUBUNIT
  fold change: 1.08
LINJ.36.4570 […] SUBUNIT
  fold change: 0.83
LMJF.10.0510 GLYCEROL-3-PHOSPHATE DEH[…] ], GLYCOSOMAL
  fold change: 0.91
LMJF.16.1610 PROHIBITIN
  fold change: 1.25
LMJF.18.1370 HEAT SHOCK PROTEIN, PUTATIVE
  fold change: 1.16
LMJF.19.0300 RNA BINDING PROTEIN, PUTATIVE
  fold change: 0.91
LMJF.21.0760 […]-ATP-ASE SUBUNIT 5, PUTATIVE
  fold change: 0.77
LMJF.22.0410 HY[…], CONSERVED
  fold change: 0.97
LMJF.25.1770 ENOYL-COA REDUCTASE, PUTATIVE
  fold change: 1.06
LMJF.26.0300 AMINOPEPTIDASE-LIKE PROTEIN
  fold change: 0.7
LMJF.26.2560 HY[…], CONSERVED
  fold change: 1.1
LMJF.27.1810 GLYCOSOMAL PHOSPHOENOLPYRUVATE CARBOXYKINASE, PUTATIVE
  fold change: 1.1
LMJF.28.0490 PROPIONYL-COA C[…] CHAIN, PUTATIVE
  fold change: 0.63
LMJF.29.0940 HY[…], CONSERVED
  fold change: 1.08
LMJF.29.1310 CARNITINE/CHOLINE ACETYLTRANSFERASE, PUTATIVE
  fold change: 0.86
LMJF.29.1470 HY[…], CONSERVED
  fold change: 0.86
LMJF.29.2440 HY[…], CONSERVED
  fold change: 1.01
LMJF.30.2350 SPHINGOSINE 1-PHOSPHATE LYASE
  fold change: 1.2
LMJF.30.2970 GLYCERALDEHYDE 3-PHOSPHATE DEHYDROGENASE, GLYCOSOMAL
  fold change: 1.09
LMJF.30.3390 CAS/CSE/IMPORTIN DOMAIN PROTEIN, PUTATIVE
  fold change: 0.98
LMJF.31.2650 ACETOIN DEHYDROGENASE E3 COMPONENT-LIKE PROTEIN
  fold change: 0.96
LMJF.31.2970 ACETYL-COA CARBOXYLASE, PUTATIVE
  fold change: 0.89
LMJF.33.1030 HY[…], CONSERVED
  fold change: 0.88
LMJF.35.5040 polyadenylate-binding protein 1
  fold change: 0.88
LMJF.35.5250 ALPHA-1,2-MANNOSYLTRANSFERASE, PUTATIVE
  fold change: 0.83
LMJF.36.5100 HY[…], CONSERVED
  fold change: 1.03
LMJF.[…] RIBOSOMAL PROTEIN S7, PUTATIVE
  fold change: 1.35
Protein LINJ.03.0940 HY[…], CONSERVED
  fold change vs vehicle control: 1.07
Protein LINJ.09.0030 HY[…], CONSERVED
  fold change vs vehicle control: 0.7
Protein LINJ.11.0780 40S RIBOSOMAL PROTEIN S21, PUTATIVE
  fold change relative to vehicle control: 1.32
Protein LINJ.13.0990 […] SUBUNIT 2, PUTATIVE
  fold change: 0.91
Protein LINJ.13.1460 ALPHA TUBULIN
  fold change vs vehicle control: 0.98
Protein LINJ.15.0090 HEAT SHOCK PROTEIN HSLVU, ATPASE SUBUNIT HSLU, PUTATIVE
  fold change: 0.88
Protein LINJ.16.1380 […], PUTATIVE
  fold change relative to vehicle control: 0.96
Protein LINJ.19.0300 RNA BINDING PROTEIN
  fold change vs vehicle control: 1.22
Protein LINJ.20.0630 CYTIDINE TR[…], PUTATIVE
  fold change: 1.05
Protein LINJ.20.1390 COATOMER BETA SUBUNIT, PUTATIVE
  fold change relative to vehicle control: 0.93
Protein LINJ.21.1310 40S RIBOSOMAL PROTEIN S23, PUTATIVE
  fold change vs vehicle control: 1.16
Protein LINJ.23.1680 HY[…], CONSERVED
  fold change vs vehicle control: 1.1
Protein LINJ.25.1170 […] OXIDASE VII, PUTATIVE
  fold change vs vehicle control: 1.01
Protein LINJ.25.1220 RIBOSOMAL PROTEIN S25
  fold change relative to vehicle control: 1.27
Protein LINJ.26.1080 HY[…], CONSERVED
  fold change vs vehicle control: 1.08
Protein LINJ.27.1140 HY[…], CONSERVED
  fold change vs vehicle control: 1.02
Protein LINJ.28.1100 RIBOSOMAL PROTEIN S20, PUTATIVE
  fold change vs vehicle control: 0.97
Protein LINJ.28.1940 R[…] A, 51KDA SUBUNIT, PUTATIVE
  fold change relative to vehicle control: 1.1
Protein LINJ.31.2350 ADP-RI[…], PUTATIVE
  fold change: 1.09
Protein LINJ.34.0670 […]-ATP-ASE SUBUNIT 11, PUTATIVE
  fold change vs vehicle control: 0.75
Protein LINJ.35.0410 40S RIBOSOMAL PROTEIN S3A, PUTATIVE
  fold change: 1.1
Protein LINJ.35.0780 CBS DOMAIN PROTEIN, CONSERVED
  fold change relative to vehicle control: 1.01
Protein LINJ.36.0510 HY[…], CONSERVED
  fold change vs vehicle control: 0.99
Protein LINJ.36.3940 40S RIBOSOMAL PROTEIN S27-1, PUTATIVE
  fold change vs vehicle control: 0.88
Protein LINJ.36.4180 HS1VU COMPLEX P[…]-LIKE
  fold change: 0.87
Protein LINJ.36.7350 […] OXIDASE SUBUNIT I
  fold change: 0.96
Protein LMJF.01.0520 LONG-CHAIN-FATTY-ACID-COA LIGASE, PUTATIVE
  fold change: 0.91
Protein LMJF.02.0460 HY[…], CONSERVED
  fold change vs vehicle control: 1.05
Protein LMJF.03.0230 LONG CHAIN FATTY ACYL COA SYNTHETASE, PUTATIVE
  fold change vs vehicle control: 0.98
Protein LMJF.03.0630 HY[…], CONSERVED
  fold change vs vehicle control: 0.95
Protein LMJF.05.0780 HY[…], CONSERVED
  fold change: 1.06
Protein LMJF.06.0010 HISTONE H4
  fold change: 1.11
Protein LMJF.06.0140 […] 6 SUBUNIT, PUTATIVE
  fold change: 0.69
Protein LMJF.06.0650 […], PUTATIVE
  fold change: 1
Protein LMJF.08.0510 RIBOSE-PHOSPHATE PYROPHOSPHOKINASE, PUTATIVE
  fold change vs vehicle control: 0.99
Protein LMJF.08.0550 T[…]-LIKE PROTEIN
  fold change vs vehicle control: 1.01
Protein LMJF.08.1100 HY[…], CONSERVED
  fold change vs vehicle control: 0.98
Protein LMJF.09.1120 MIT[…] BINDING PROTEIN 2,MRP2, GBP25
  fold change relative to vehicle control: 1.01
Protein LMJF.09.1260 HY[…], CONSERVED
  fold change vs vehicle control: 0.98
Protein LMJF.10.1010 NUCLEOSIDE PHOSPHORYLASE-LIKE PROTEIN
  fold change: 0.97
Protein LMJF.10.1240 HY[…], CONSERVED
  fold change: 0.91
Protein LMJF.11.0130 NGG1 I[…] 3-LIKE PROTEIN
  fold change vs vehicle control: 0.94
Protein LMJF.11.0240 […] 7 SUBUNIT, PUTATIVE
  fold change vs vehicle control: 1.1
Protein LMJF.11.1050 PRETRA[…], ALPHA SUBUNIT, PUTATIVE
  fold change: 1.24
Protein LMJF.11.1110 60S RIBOSOMAL PROTEIN L28, PUTATIVE
  fold change vs vehicle control: 1.17
Protein LMJF.12.0210 […] […]1L8 3, PUTATIVE
  fold change vs vehicle control: 1.07
Protein LMJF.12.0280 ORNITHINE DECARBOXYLASE, PUTATIVE
  fold change vs vehicle control: 1
Protein LMJF.13.0450 HY[…], CONSERVED
  fold change vs vehicle control: 0.93
Protein LMJF.13.0870 MIT[…] ALPHA SUBUNIT, PUTATIVE
  fold change vs vehicle control: 1.33
Protein LMJF.14.0130 INOSINE-GUANINE […], PUTATIVE
  fold change vs vehicle control: 0.93
Protein LMJF.14.0310 […] 3 SUBUNIT, PUTATIVE
  fold change: 0.98
Protein LMJF.14.0650 FATTY ACID ELONGASE, PUTATIVE
  fold change: 1.11
Protein LMJF.14.0660 FATTY ACID ELONGASE, PUTATIVE
  fold change: 1.17
Protein LMJF.14.0705 FATTY ACID ELONGASE, PUTATIVE
  fold change: 1.24
Protein LMJF.14.0740 FATTY ACID ELONGASE, PUTATIVE
  fold change: 1.23
Protein LMJF.14.1120 KINESIN K39, PUTATIVE
  fold change relative to vehicle control: 1.49
Protein LMJF.15.0230 LYSYL-TRNA SYNTHETASE, PUTATIVE
  fold change vs vehicle control: 1.01
Protein LMJF.15.0280 RIBONUCLEOPROTEIN P18, MIT[…], PUTATIVE
  fold change vs vehicle control: 0.99
Protein LMJF.15.1010 GLUTAMATE DEHYDROGENASE
  fold change: 1.08
Protein LMJF.16.0520 HY[…], CONSERVED
  fold change relative to vehicle control: 1.36
Protein LMJF.16.0540 ASPARTATE […], PUTATIVE
  fold change: 1.04
Protein LMJF.16.0950 SUCROSE-PHOSPHATE SYNTHASE-LIKE PROTEIN
  fold change vs vehicle control: 1.31
Protein LMJF.16.0960 HY[…], CONSERVED
  fold change vs vehicle control: 0.93
Protein LMJF.16.1180 COATOMER DELTA SUBUNIT-LIKE PROTEIN
  fold change: 1.08
Protein LMJF.17.0010 HY[…], CONSERVED
  fold change: 1.07
Protein LMJF.18.0510 ACONITASE, PUTATIVE
  fold change vs vehicle control: 1.01
Protein LMJF.18.0890 RAB7 GTP BINDING PROTEIN, PUTATIVE
  fold change vs vehicle control: 0.91
Protein LMJF.18.1130 RAS-RELATED PROTEIN RAB-5, PUTATIVE
  fold change: 1
Protein LMJF.19.1120 […]-ATP-ASE SUBUNIT, PUTATIVE
  fold change: 0.82
Protein LMJF.19.1160 HY[…], CONSERVED
  fold change vs vehicle control: 3.16
Protein LMJF.19.1530 PEPT[…]-LIKE PROTEIN
  fold change vs vehicle control: 1.01
Protein LMJF.20.0100 PHOSPH[…] C, GLYCOSOMAL
  fold change: 1.01
Protein LMJF.21.0720 HY[…], CONSERVED
  fold change vs vehicle control: 0.93
Protein LMJF.21.1250 ADENYLATE KINASE, PUTATIVE
  fold change: 0.71
Protein LMJF.21.1555 HY[…], CONSERVED
  fold change: 1.05
Protein LMJF.21.1580 HY[…], UNKNOWN FUNCTION
  fold change: 1.2
Protein LMJF.21.1700 […] 2 SUBUNIT, PUTATIVE
  fold change vs vehicle control: 1.03
Protein LMJF.22.0230 AMINO ACID PERMEASE, PUTATIVE
  fold change: 1.26
Protein LMJF.22.0570 […] SUBUNIT 1, PUTATIVE
  fold change: 0.99
